{"source": "patent US20070112077A1", "about": "“Des-C,D analogs of 1alpha,25-dihydroxy-19-norvitamin D3” (Wisconsin Alumni Research Foundation, priority 2005, published 2007)", "key": {"Sprague-Dawley rats": {"system": "Sprague-Dawley rats", "experiment": "Bone calcium mobilization (serum calcium)", "format": "in vivo, rat", "conditions": "even at the very high dose; four consecutive ip doses; FIG. 4", "description": "FIG. 4 is a bar graph comparing the bone calcium mobilization activity of Des-C,D with that of 1,25(OH)2D3.\nMale, weanling Sprague-Dawley rats were placed on Diet 11 (Suda et al. J. Nutr. 100:1049, 1970) (0.47% Ca) diet +vitamins AEK for one week followed by Diet 11 (0.02% Ca) +AEK for 3 weeks. The rats were then switched to a diet containing 0.47% Ca for one week followed by two weeks on a diet containing 0.02% Ca. Dose administration began during the last week on 0.02% calcium diet. Four consecutive ip doses were given approximately 24 hours apart. Twenty-four hours after the last dose, blood was collected from the severed neck and the concentration of serum calcium was determined as a measure of bone calcium mobilization. The first 10 cm of the intestine was also collected for intestinal calcium transport analysis using the everted gut sac method. Antagonism was tested by administering a combination of 1,25(OH)2D3 and the compound to the animal simultaneously."}, "[1]": {"target": "T1, full-length recombinant rat vitamin D receptor (Rattus norvegicus, UniProt P13053)", "T1 construct": "Full-length recombinant rat receptor was expressed in E. coli; histidine tag (C); made in house; host or cells: E. coli BL21 (DE3) Codon Plus RIL", "T1 sequence (P13053 1-423)": "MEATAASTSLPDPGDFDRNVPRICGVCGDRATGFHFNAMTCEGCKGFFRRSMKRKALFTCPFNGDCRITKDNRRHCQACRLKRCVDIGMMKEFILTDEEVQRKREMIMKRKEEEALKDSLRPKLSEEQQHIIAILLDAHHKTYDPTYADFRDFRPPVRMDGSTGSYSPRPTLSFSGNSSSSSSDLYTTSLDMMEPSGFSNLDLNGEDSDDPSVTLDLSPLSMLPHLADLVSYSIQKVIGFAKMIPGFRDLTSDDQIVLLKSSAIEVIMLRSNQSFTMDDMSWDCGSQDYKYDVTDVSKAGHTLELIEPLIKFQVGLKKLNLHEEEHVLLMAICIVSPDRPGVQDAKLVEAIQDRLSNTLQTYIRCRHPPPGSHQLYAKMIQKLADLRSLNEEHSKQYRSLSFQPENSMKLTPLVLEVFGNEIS", "experiment": "Vitamin D receptor binding, competition with [3H]-1,25-(OH)2-D3", "conditions": "competition with [3H]-1,25-(OH)2-D3, FIG. 1", "description": "FIG. 1 is a graph comparing the relative activity of Des-C,D and 1,25(OH)2D3 to compete for binding with [^3H]-1 ,25-(OH)2-D3 to the full-length recombinant rat vitamin D receptor.\nFull-length recombinant rat receptor was expressed in E. coli BL21 (DE3) Codon Plus RIL cells and purified to homogeneity using two different column chromatography systems. The first system was a nickel affinity resin that utilizes the C-terminal histidine tag on this protein. The protein that eluted from this resin was further purified using ion exchange chromatography (S-Sepharose Fast Flow). Aliquots of the purified protein were quick frozen in liquid nitrogen and stored at −80° C. until use. For use in binding assays, the protein was diluted in TEDK50 (50 mM Tris, 1.5 mM EDTA, pH 7.4, 5 mM DTT, 150 mM KCI) with 0.1% Chaps detergent. […]\nUnlabeled ligands were dissolved in ethanol and the concentrations were determined using UV spectrophotometry (1,25(OH)2D3: molar extinction coefficient=18,200 and λmax=265 nm). […]\nRadiolabeled and unlabeled ligands were added to 100 mcl of the diluted protein at a final ethanol concentration of ≦10%, mixed and incubated overnight on ice to reach binding equilibrium. […] Total binding was determined from the tubes containing only radiolabeled ligand."}, "[2]": {"system": "Human promyelocytic leukemia (HL60) cells", "experiment": "HL-60 differentiation (nitro blue tetrazolium reduction)", "format": "cell-based", "conditions": "FIG. 2", "experimental": "FIG. 2 is a graph comparing the percent HL-60 cell differentiation as a function of the concentration of Des-C,D with that of 1,25(OH)2D3.\nThe study drugs were dissolved in ethanol and the concentrations determined using UV spectrophotometry. Serial dilutions were prepared so that a range of drug concentrations was tested without changing the final concentration of ethanol (≦0.2%) present in the cell cultures.\nHuman promyelocytic leukemia (HL60) cells were grown in RPMI-1640 medium containing 10% fetal bovine serum. The cells were incubated at 37° C. in the presence of 5% CO2.\nHL60 cells were plated at 1.2 x 10^5cells/mL. Eighteen hours after plating, cells in duplicate were treated with drug. Four days later, the cells were harvested and a nitro blue tetrazolium reduction assay was performed (Collins et al., 1979; J. Exp. Med. 149:969-974). The percentage of differentiated cells was determined by counting a total of 200 cells and recording the number that contain intracellular black-blue formazan deposits. Verification of differentiation to monocytic cells was determined by measuring phagocytic activity."}, "[3]": {"system": "24-hydroxylase (24Ohase) gene promoter in ROS 17/2.8 (bone) cells", "experiment": "In vitro transcription assay (24-hydroxylase gene promoter, luciferase reporter)", "format": "cell-based", "conditions": "ROS 17/2.8 cells, FIG. 3", "experimental": "FIG. 3 is a graph comparing the in vitro transcription activity of Des-C, D with that of 1,25(OH)2D3.\nTranscription activity was measured in ROS 17/2.8 (bone) cells that were stably transfected with a 24-hydroxylase (240hase) gene promoter upstream of a luciferase reporter gene (Arbour et al., 1998). Cells were given a range of doses. Sixteen hours after dosing the cells were harvested and luciferase activities were measured using a luminometer. RLU=relative luciferase units."}}}
{"compound": "C=C1[C@H](O)CC(=C/C=C/CCC[C@@H](C)CCCC(C)(C)O)C[C@H]1O", "note": "[Des-C,D]", "values": [{"measurement": "bone calcium mobilizing activity", "setting": "Sprague-Dawley rats", "result": "no measureable bone calcium mobilizing activity"}, {"measurement": "binding to the vitamin D receptor compared with 1,25-(OH)2D3", "setting": "[1]", "result": "does not bind to the vitamin D receptor as strongly as the native hormone 1,25-(OH)2D3"}, {"measurement": "activity in inducing differentiation of HL-60 cells compared with 1,25-(OH)2D3", "setting": "[2]", "result": "does not show as much activity as 1,25-(OH)2D3"}, {"measurement": "activity in causing transcription compared with 1,25-(OH)2D3", "setting": "[3]", "result": "does not show as much activity in causing transcription as 1,25-(OH)2D3"}]}
